Source: ChEMBL document CHEMBL5620411, “Perspectives and new aspects of histone deacetylase inhibitors in the therapy of CNS diseases” (Eur J Med Chem, 2023)

Experiments:
[1] = Brain to plasma ratio in rat; format: ADME; details: read-out: BPR
[2] = Half life in mouse; format: ADME, organism-based; details: in vivo
U-87 MG [3] = assay: Antiproliferative activity against human U87 cells assessed as reduction in cell viability incubated for 72 hrs by MTT assay
U-251 = assay: Antiproliferative activity against human U-251 cells assessed as reduction in cell viability incubated for 24 hrs by MTT assay; format: functional, cell-based; details: U-251, 24 h
Histone deacetylase 1 [4] = biological target: T1, Histone deacetylase 1 (Homo sapiens, UniProt Q13547); assay: Inhibition of HDAC1 (unknown origin)
T1 sequence (Q13547 whole entry): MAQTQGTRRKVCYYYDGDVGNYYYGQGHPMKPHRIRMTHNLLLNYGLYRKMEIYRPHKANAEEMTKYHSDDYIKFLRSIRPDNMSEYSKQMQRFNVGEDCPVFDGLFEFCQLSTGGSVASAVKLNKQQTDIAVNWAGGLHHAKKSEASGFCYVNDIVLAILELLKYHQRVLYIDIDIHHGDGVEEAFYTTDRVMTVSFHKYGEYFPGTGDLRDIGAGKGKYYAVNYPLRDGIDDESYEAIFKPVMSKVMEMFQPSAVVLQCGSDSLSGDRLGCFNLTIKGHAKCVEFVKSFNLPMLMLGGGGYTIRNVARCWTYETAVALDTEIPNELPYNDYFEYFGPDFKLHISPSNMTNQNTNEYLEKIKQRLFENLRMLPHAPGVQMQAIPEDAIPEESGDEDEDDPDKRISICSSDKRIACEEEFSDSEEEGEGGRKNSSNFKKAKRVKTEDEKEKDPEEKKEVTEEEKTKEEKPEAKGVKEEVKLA

[5] = biological target: T2, Protein deacetylase HDAC6 (Homo sapiens, UniProt Q9UBN7); assay: Inhibition of human HDAC6
T2 sequence (Q9UBN7 whole entry): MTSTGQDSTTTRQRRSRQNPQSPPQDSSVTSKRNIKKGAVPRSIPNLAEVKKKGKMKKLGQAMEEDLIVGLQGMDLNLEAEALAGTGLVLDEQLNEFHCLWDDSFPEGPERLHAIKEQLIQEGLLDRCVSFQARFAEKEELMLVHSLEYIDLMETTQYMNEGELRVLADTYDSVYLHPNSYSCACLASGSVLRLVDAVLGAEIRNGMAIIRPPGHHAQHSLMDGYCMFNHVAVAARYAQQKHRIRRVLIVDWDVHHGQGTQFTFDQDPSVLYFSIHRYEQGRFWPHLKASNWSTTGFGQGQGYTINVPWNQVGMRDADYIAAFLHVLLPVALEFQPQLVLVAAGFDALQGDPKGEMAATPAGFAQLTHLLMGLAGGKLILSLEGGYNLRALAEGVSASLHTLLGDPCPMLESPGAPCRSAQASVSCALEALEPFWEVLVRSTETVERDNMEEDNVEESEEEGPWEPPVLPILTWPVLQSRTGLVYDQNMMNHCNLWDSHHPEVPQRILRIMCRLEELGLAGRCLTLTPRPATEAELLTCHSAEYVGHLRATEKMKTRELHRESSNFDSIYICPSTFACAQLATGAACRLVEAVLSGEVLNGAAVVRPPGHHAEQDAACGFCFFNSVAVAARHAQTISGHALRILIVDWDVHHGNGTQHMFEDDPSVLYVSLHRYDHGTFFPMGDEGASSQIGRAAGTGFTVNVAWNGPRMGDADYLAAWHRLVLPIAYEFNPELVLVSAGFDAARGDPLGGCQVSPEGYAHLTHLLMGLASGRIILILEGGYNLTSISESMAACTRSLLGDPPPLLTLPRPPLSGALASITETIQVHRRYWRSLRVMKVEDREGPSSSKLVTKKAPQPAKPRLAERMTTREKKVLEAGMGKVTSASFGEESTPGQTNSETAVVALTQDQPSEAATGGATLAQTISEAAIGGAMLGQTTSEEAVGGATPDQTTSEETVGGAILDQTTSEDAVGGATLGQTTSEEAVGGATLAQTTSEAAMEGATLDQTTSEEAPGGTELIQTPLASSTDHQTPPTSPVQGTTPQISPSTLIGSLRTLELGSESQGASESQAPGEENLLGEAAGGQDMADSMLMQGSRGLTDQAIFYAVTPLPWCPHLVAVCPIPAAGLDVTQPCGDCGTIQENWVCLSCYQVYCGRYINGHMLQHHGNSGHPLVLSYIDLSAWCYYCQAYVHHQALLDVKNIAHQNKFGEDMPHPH

[6] = Half life in mouse plasma at 1 uM by LC-MS/MS analysis; format: ADME, cell-free
U-87 MG [7] = assay: Antiproliferative activity against human U87 cells assessed as reduction in cell growth incubated for 72 hrs by MTT assay; format: functional, cell-based, U-87MG ATCC
Histone deacetylase 8 = biological target: T3, Histone deacetylase 8 (Homo sapiens, UniProt Q9BY41); assay: Inhibition of C-terminal FLAG-tagged full length human recombinant HDAC8 expressed in baculovirus
T3 sequence (Q9BY41 whole entry): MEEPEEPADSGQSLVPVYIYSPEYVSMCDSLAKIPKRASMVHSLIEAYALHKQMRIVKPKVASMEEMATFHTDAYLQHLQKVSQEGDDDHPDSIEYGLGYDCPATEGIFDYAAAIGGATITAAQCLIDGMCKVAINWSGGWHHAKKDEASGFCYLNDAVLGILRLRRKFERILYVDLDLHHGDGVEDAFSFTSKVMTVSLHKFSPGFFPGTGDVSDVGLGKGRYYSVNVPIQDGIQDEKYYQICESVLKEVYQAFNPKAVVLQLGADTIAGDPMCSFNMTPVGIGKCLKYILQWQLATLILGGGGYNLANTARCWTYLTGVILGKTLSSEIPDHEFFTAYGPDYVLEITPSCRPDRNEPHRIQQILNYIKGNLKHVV

Histone deacetylase 1 [8] = biological target: T1, Histone deacetylase 1; assay: Inhibition of C-terminal FLAG-tagged human recombinant HDAC1 expressed in baculovirus by HTRF method
[9] = biological target: Histone deacetylase 4 (Homo sapiens) (UniProt P56524); assay: Inhibition of human recombinant HDAC4 (645 to 1057 residues) expressed in Escherichia coli
Chain of Histone deacetylase 4 (Homo sapiens) (P56524 whole entry, the tested form may be a part): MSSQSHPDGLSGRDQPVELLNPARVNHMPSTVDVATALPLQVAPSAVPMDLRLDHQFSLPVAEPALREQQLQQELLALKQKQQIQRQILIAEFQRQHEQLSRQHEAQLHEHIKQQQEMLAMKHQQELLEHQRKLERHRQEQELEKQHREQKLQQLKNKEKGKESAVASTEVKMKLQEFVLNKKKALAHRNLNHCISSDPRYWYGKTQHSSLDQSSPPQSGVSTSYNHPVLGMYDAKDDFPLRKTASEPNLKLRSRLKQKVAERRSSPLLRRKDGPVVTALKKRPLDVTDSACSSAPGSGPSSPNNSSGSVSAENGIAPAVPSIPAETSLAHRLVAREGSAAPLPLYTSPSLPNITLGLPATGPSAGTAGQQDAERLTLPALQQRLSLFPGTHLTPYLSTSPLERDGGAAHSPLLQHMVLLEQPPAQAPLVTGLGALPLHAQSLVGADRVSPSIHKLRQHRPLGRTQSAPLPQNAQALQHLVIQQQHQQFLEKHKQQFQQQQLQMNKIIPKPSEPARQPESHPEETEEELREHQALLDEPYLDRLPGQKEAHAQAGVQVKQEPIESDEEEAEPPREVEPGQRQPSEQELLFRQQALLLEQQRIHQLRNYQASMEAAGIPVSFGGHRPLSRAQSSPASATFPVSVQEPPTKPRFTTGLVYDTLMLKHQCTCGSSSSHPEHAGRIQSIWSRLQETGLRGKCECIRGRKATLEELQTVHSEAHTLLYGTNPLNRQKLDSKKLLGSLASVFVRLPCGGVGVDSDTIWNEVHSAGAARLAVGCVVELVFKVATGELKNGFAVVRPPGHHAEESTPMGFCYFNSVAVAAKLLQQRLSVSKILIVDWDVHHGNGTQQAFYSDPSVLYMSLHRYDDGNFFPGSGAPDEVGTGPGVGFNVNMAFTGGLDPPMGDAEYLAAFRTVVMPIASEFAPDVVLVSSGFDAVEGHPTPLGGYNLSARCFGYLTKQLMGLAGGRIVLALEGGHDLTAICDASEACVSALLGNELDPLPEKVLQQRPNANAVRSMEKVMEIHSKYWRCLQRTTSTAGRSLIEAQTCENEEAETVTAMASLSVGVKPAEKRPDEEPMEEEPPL

[10] = biological target: T2, Protein deacetylase HDAC6; assay: Inhibition of N-terminal FLAG-tagged full length human recombinant HDAC6 expressed in baculovirus
Histone deacetylase 2 = Histone deacetylase 2 (Homo sapiens, UniProt Q92769); assay: Inhibition of C-terminal FLAG-tagged full length human recombinant HDAC2 expressed in Sf9 cells by HTRF method
Chain of Histone deacetylase 2 (Q92769 whole entry): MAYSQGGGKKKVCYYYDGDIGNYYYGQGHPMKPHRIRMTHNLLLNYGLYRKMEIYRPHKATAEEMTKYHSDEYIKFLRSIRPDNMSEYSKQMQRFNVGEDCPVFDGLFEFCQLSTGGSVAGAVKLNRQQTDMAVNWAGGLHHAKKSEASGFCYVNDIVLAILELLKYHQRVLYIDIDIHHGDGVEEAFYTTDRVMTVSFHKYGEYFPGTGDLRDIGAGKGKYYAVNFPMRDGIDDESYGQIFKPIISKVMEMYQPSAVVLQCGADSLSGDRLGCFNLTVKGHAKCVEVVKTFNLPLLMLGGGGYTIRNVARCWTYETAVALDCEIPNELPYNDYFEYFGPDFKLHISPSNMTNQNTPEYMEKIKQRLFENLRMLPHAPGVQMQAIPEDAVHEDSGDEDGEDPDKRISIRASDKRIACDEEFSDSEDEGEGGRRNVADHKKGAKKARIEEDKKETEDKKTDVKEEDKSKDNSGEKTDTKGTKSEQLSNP

O=C(NO)c1ccc(CN2CCCSc3ccccc32)cc1
Kp [1]: 2.3

COc1cc(/C=C/C(=O)CC(=O)/C=C/c2ccc(O)c(OC)c2)ccc1O [CURCUMIN]
t1/2 [2]: 0.287 h | IC50 (U-87 MG [3]): 31900 nM

O=C(CCCCCCC(=O)Nc1cc(C(F)(F)F)ccc1Cl)NO
IC50 (U-251): 890 nM | IC50 (Histone deacetylase 1 [4]): 120 nM

CN1CCC2c3ccccc3N(Cc3ccc(C(=O)NO)cc3)C2C1 (centres undefined)
IC50 [5]: 15 nM | Kp [1]: 0.18

COc1cc(/C=C/C(=O)CC(=O)/C=C/c2ccc(/C=C/C(=O)NO)cc2)ccc1O
half-life at 1 µM [6]: 1.53 h | IC50 (U-87 MG [7]): 2780 nM

COc1cc(-c2nc(C(=O)NCc3ccc(C(=O)NO)cc3)cc3c2[nH]c2ccccc23)cc(OC)c1OC
IC50 (Histone deacetylase 8): > 559 nM | IC50 (Histone deacetylase 1 [8]): 8.7 nM | IC50 [9]: > 559 nM | IC50 [10]: 3.8 nM | IC50 (Histone deacetylase 2): > 559 nM
